Data from patent US20250026765A1, “SPIROHETEROCYCLE DERIVATIVE HAVING SEROTONIN RECEPTOR BINDING ACTIVITY” (Shionogi & Co., Ltd., priority 2021, published 2025).
Where two headings read alike, the source gives them in different places.

How the values were obtained:
[1] = molecular target: human recombinant 5-HT2C receptor (Homo sapiens (Human), UniProt P28335); test: 5-HT2C receptor binding inhibition test ([3H]-Mesulergine); conditions: Jump-In HEK cell membrane, 37° C. 2 hours
Outline: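 Radioligand displacement on HEK membranes expressing human recombinant 5-HT2C (0.5 μg/well), [3H]-mesulergine near its Kd, in pH 7.4 Tris-HCl buffer with NaCl, MgCl2, KCl, CaCl2 and 0.1% BSA, 2 h at 37° C. Bound radioactivity measured after GF/B filtration; non-specific binding defined with 500 μmol/L serotonin, Ki from dose-response curve.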

CYP3A4 = CYP3A4 (Homo sapiens (Human), UniProt P08684); test: CYP3A4 (MDZ) MBI test; assay type: in vitro ADME; conditions: pooled human liver microsomes, midazolam 1-hydroxylation, pre-reaction 0 or 30 minutes
Protocol: Test Example 8: CYP3A4 (MDZ) MBI Test
This test is a test to evaluate mechanism based inhibition (MBI) potency from enhancement of CYP3A4 inhibition of the compound of the present invention by a metabolism reaction. CYP3A4 inhibition is evaluated using pooled human liver microsomes by 1-hydroxylation reaction of midazolam (MDZ) as a marker reaction.
The reaction conditions are as follows: substrate, 10 μmol/L MDZ; pre-reaction time, 0 or 30 minutes; reaction time, 2 minutes; reaction temperature, 37° C.; pooled human liver microsomes, at pre-reaction 0.5 mg/mL, at reaction 0.05 mg/mL (at 10-fold dilution); concentrations of the compound of the present invention, 0.83, 5, 10, 20 μmol/L (four points).
Pooled human liver microsomes and a solution of the compound of the present invention in K-Pi buffer (pH 7.4) as a pre-reaction solution are added to a 96-well plate at the composition of the pre-reaction. A part of pre-reaction solution is transferred to another 96-well plate, and 1/10 diluted by K-Pi buffer containing a substrate. NADPH as a co-factor is added to initiate a reaction as a marker reaction (without preincubation). After a predetermined time of a reaction, methanol/acetonitrile=1/1 (V/V) solution is added to stop the reaction. In addition, NADPH is added to a remaining pre-reaction solution to initiate a pre-reaction (with preincubation). After a predetermined time of a pre-reaction, a part is transferred to another plate, and 1/10 diluted by K-Pi buffer containing a substrate to initiate a reaction as a marker reaction. After a predetermined time of a reaction, methanol/acetonitrile=1/1 (V/V) solution is added to stop the reaction. Each plate where the marker reaction has been performed is centrifuged at 3000 rpm for 15 minutes. Then, midazolam 1-hydroxide in the centrifuged supernatant is quantified by LC/MS/MS.
Only DMSO which is a solvent dissolving the compound of the present invention added to a reaction system is adopted as a control (100%). Remaining activity (%) is calculated at each concentration of the compound of the present invention added. IC is calculated by reverse-presumption by a logistic model using a concentration and an inhibition rate. Shifted IC value is calculated as “IC of preincubation at 0 min/IC of preincubation at 30 min”. When a shifted IC is 1.5 or more, this is defined as positive. When a shifted IC is 1.0 or less, this is defined as negative.

[2] = read-out: human serotonin 5-HT2C receptor binding activity Ki

human recombinant 5-HT2C receptor, sequence (P28335 33-458): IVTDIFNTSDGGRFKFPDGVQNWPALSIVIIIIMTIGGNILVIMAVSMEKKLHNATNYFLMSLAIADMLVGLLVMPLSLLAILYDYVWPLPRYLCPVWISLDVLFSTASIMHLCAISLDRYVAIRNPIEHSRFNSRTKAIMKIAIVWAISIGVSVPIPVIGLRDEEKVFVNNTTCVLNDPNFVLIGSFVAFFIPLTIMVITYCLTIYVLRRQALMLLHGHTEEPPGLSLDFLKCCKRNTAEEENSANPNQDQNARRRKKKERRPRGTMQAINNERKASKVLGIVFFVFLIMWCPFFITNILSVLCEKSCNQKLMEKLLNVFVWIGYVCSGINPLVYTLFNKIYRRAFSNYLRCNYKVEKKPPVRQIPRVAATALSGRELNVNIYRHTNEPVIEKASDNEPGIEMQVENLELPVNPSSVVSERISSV
CYP3A4, sequence (P08684 whole entry): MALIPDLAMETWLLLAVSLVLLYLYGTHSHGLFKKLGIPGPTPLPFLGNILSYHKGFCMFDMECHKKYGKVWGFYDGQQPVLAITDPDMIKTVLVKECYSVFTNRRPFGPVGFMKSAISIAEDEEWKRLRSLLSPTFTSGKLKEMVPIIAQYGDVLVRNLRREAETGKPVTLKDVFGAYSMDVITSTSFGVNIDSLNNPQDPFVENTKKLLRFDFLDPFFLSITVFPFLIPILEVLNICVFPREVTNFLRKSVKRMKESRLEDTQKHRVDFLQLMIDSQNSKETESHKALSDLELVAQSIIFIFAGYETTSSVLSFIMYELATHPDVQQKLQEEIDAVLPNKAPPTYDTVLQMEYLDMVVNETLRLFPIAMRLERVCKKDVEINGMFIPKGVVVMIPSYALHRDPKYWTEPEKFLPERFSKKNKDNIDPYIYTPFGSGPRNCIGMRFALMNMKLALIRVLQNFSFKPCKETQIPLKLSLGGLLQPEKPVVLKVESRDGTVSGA

Ki [1, 2] [nM] | Compound | CYP3A4 (MDZ) MBI (shifted IC) (CYP3A4) | Ki ([1]; read-out: h-5-HT2C Ki) [nM]
0.374 | Cc1nc(CN(Cc2ccc(OCC(C)C)cc2F)C2=NOC3(CCN(C)CC3)N2)co1 [Compound I-128] | Negative (When a shifted IC is 1.0 or less, this is defined as negative) | –
0.543 | CCCCOc1ccc(CN(Cc2coc(C)n2)C2=NOC3(CCN(C)CC3)N2)c(F)c1 [Compound I-114] | Negative (When a shifted IC is 1.0 or less, this is defined as negative) | –
0.694 | Cc1nc(CN(Cc2ccc(CCC(F)(F)F)cc2)C2=NOC3(CCN(C)CC3)N2)co1 [Compound I-125] | Negative (When a shifted IC is 1.0 or less, this is defined as negative) | –
0.469 | CCCCOc1ccc(CN(Cc2coc(C)n2)C2=NOC3(CCN(C)CC3)N2)cc1F [Compound I-115] | Negative (When a shifted IC is 1.0 or less, this is defined as negative) | –
1.6 | CCCCOc1ccc(CN(Cc2cnn(C)n2)C2=NOC3(CCN(C)CC3)N2)cc1 [Compound I-113] | Negative (When a shifted IC is 1.0 or less, this is defined as negative) | –
1.13 | CCCCOc1ccc(CN(Cc2coc(CF)n2)C2=NOC3(CCN(C)CC3)N2)cc1 [Compound I-105] | Negative (When a shifted IC is 1.0 or less, this is defined as negative) | –
0.578 | Cc1nc(CN(Cc2ccc(OCC(F)(F)C(F)(F)F)cc2F)C2=NOC3(CCN(C)CC3)N2)co1 [Compound I-104] | Negative (When a shifted IC is 1.0 or less, this is defined as negative) | –

Compound | Ki [1, 2] [nM] | CYP3A4 (MDZ) MBI (shifted IC) (CYP3A4) | Ki ([1]; read-out: h-5-HT2C Ki) [nM]
CCCCOc1ccc(CN(Cc2coc(C)n2)C2=NOC3(CCN(C)CC3)N2)cc1 [Compound I-080] | 0.579 | Negative (When a shifted IC is 1.0 or less, this is defined as negative) | < 10
CC(C)COc1ccc(CN(Cc2coc(CF)n2)C2=NOC3(CCN(C)CC3)N2)cc1 [Compound I-067] | 0.95 | Negative (When a shifted IC is 1.0 or less, this is defined as negative) | < 10
